Reference: PubChem BioAssay (NCI)
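Values below derive from 48-hour exposures of cells grown in 96-well plates, with endpoints linearly interpolated between the two concentrations bracketing the appropriate inhibition level. TGI is the concentration that stops growth completely.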

Key:
Test in all cases: NCI-60 cell line screen, 48 h
NCI-H460 lung = test system: NCI-H460 lung
HCT-116 colon = test system: HCT-116 colon
EKVX NSCLC = test system: EKVX NSCLC
DU-145 prostate = test system: DU-145 prostate
HL-60(TB) leukemia = test system: HL-60(TB) leukemia
SN12C renal = test system: SN12C renal
SF-295 CNS = test system: SF-295 CNS
U251 CNS = test system: U251 CNS
SK-MEL-2 melanoma = test system: SK-MEL-2 melanoma
SK-MEL-5 melanoma = test system: SK-MEL-5 melanoma
OVCAR-8 ovarian = test system: OVCAR-8 ovarian
IGROV1 ovarian = test system: IGROV1 ovarian
PC-3 prostate = test system: PC-3 prostate
HCT-15 colon = test system: HCT-15 colon
SK-OV-3 ovarian = test system: SK-OV-3 ovarian
SF-539 CNS = test system: SF-539 CNS

Row | Compound | TGI (NCI-H460 lung) [µM] | TGI (HCT-116 colon) [µM] | TGI (EKVX NSCLC) [µM] | TGI (DU-145 prostate) [µM] | TGI (HL-60(TB) leukemia) [µM] | TGI (SN12C renal) [µM] | TGI (SF-295 CNS) [µM] | TGI (U251 CNS) [µM] | TGI (SK-MEL-2 melanoma) [µM] | TGI (SK-MEL-5 melanoma) [µM] | TGI (OVCAR-8 ovarian) [µM] | TGI (IGROV1 ovarian) [µM] | TGI (PC-3 prostate) [µM] | TGI (HCT-15 colon) [µM] | TGI (SK-OV-3 ovarian) [µM] | TGI (SF-539 CNS) [µM]
1 | N=c1nc(N)nc(N)n1-c1ccc(S(N)(=O)=O)cc1 | > 100 | > 100 | > 100 | > 100 | > 100 | > 100 | > 100 | > 100 | > 100 | > 100 | > 100 | > 100 | > 100 | > 100 |  | 
2 | CCOC(=O)c1c(N2CCOCC2)[nH]c(=O)c(C(c2ccc(N(C)C)cc2)c2c(O)c(C(=O)OCC)c(N3CCOCC3)[nH]c2=O)c1O | > 100 | > 100 | > 100 | > 100 |  | > 100 | > 100 | > 100 | > 100 | > 100 | > 100 |  | > 100 | > 100 | > 100 | > 100
3 | CCCCCCCCCCCCCCCCCCNc1ccn(C2OC(COP(=O)(O)OCCCCCCCCCCCCCCCC)C(O)C2O)c(=O)n1 (centres undefined) |  | > 100 | > 100 | > 100 | > 100 | > 100 | > 100 | > 100 | > 100 |  | > 100 | > 100 | > 100 | > 100 | > 100 | > 100
4 | O=c1cc2oc3ccc4ccccc4c3cc-2c(=O)[nH]1 | 53.1 | 31.2 | 33.8 | 27.6 | 4.18 |  | 37.1 | 22 | 31.6 | 29.3 | 4.53 | 27.4 | 22.4 | 22.9 | 34.5 | 25
5 | Cc1nnc2sc(-c3ccc(N)cc3)nn12 | > 100 | > 100 | > 100 | > 100 | > 100 | > 100 | > 100 |  | > 100 | > 100 | > 100 | > 100 | > 100 | > 100 | > 100 | > 100
6 | COc1cc(CSc2ccc(O)cc2)cc(O)c1O |  | 49.7 | > 100 | > 100 | > 100 | 80.5 | 51.6 | > 100 | 79.1 |  | 58.2 | > 100 | > 100 | 57.1 |  | 85.9
7 | Cc1ccc2c(c1)C(=O)C1(C2)Cc2ccc(C)cc2C1=O | > 100 | > 100 | > 100 | > 100 | > 100 |  | > 100 | > 100 | > 100 | > 100 | > 100 | > 100 | > 100 | > 100 | > 100 | > 100
8 | N#CC1(C#N)C(c2ccccc2)NC23CCCCC2C1(C#N)C(=O)N3 (centres undefined) | > 100 | > 100 | > 100 | > 100 |  | > 100 | > 100 | > 100 | > 100 |  | > 100 | > 100 | > 100 | > 100 | > 100 | > 100
